What was measured:
Assay type in all cases: in vivo
Bedstraw Catchweed = assay: post-emergence herbicide test; conditions: Galium aparine, post-emergence, read-out: % plant inhibition
Summary of the method: (§1)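 Activity is given as percent inhibition of each species following foliar application. Pots were sprayed individually in a chamber once plants reached two to three weeks.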

Yellow Foxtail [1] = assay: post-emergence herbicide test; conditions: Setaria, read-out: % plant inhibition
Summary of the method: as §1

Cocklebur [2] = assay: post-emergence herbicide test; conditions: Xanthium strumarium, post-emergence, read-out: % plant inhibition
Summary of the method: as §1

Barnyardgrass [3] = assay: post-emergence herbicide test; conditions: Echinochloa crus-galli, post-emergence, read-out: % plant inhibition
Summary of the method: as §1

Morning Glory [4] = assay: post-emergence herbicide test; conditions: Ipomoea, post-emergence, read-out: % plant inhibition
Summary of the method: as §1

Yellow Nutsedge [5] = assay: post-emergence herbicide test; conditions: Cyperus, read-out: % plant inhibition
Summary of the method: as §1

Common Chickweed = assay: post-emergence herbicide test; conditions: post-emergence, read-out: % plant inhibition
Summary of the method: as §1

Velvetleaf = assay: pre-emergence herbicide test; conditions: Abutilon theophrasti, pre-emergence, read-out: % plant inhibition
Summary of the method: (§2)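 Greenhouse pan assay in which seeds lie under a treated topsoil cover; carrier was acetone or water. Inhibition (%) was recorded about 14 days post-treatment.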

Soybean = assay: pre-emergence herbicide test; conditions: Glycine max, pre-emergence, read-out: % plant inhibition
Summary of the method: as §2

Yellow Foxtail [6] = assay: pre-emergence herbicide test; conditions: Setaria, read-out: % plant inhibition
Summary of the method: as §2

Rice = assay: pre-emergence herbicide test; conditions: Oryza sativa, read-out: % plant inhibition
Summary of the method: as §2

Cocklebur [7] = assay: pre-emergence herbicide test; conditions: Xanthium strumarium, pre-emergence, read-out: % plant inhibition
Summary of the method: as §2

Barnyardgrass [8] = assay: pre-emergence herbicide test; conditions: Echinochloa crus-galli, pre-emergence, read-out: % plant inhibition
Summary of the method: as §2

Morning Glory [9] = assay: pre-emergence herbicide test; conditions: Ipomoea, pre-emergence, read-out: % plant inhibition
Summary of the method: as §2

Yellow Nutsedge [10] = assay: pre-emergence herbicide test; conditions: Cyperus, read-out: % plant inhibition
Summary of the method: as §2

Corn = assay: pre-emergence herbicide test; conditions: Zea mays, pre-emergence, read-out: % plant inhibition
Summary of the method: as §2

C#CCOc1cc(-c2nn(C)c(C(F)(F)F)c2C)c(F)cc1Cl [Compound 39]
inhibition at 7.95803 g/ha (Bedstraw Catchweed; 0.0071 lb/A): 0%
inhibition at 40.0143 g/ha (Bedstraw Catchweed; 0.0357 lb/A): 100%
inhibition at 200.072 g/ha (Bedstraw Catchweed; 0.1785 lb/A): 100%
inhibition at 1000.92 g/ha (Bedstraw Catchweed; 0.893 lb/A): 100%
inhibition at 7.95803 g/ha (Yellow Foxtail [1]; 0.0071 lb/A): 65%
inhibition at 40.0143 g/ha (Yellow Foxtail [1]; 0.0357 lb/A): 100%
inhibition at 200.072 g/ha (Yellow Foxtail [1]; 0.1785 lb/A): 100%
inhibition at 1000.92 g/ha (Yellow Foxtail [1]; 0.893 lb/A): 100%
inhibition at 7.95803 g/ha (Cocklebur [2]; 0.0071 lb/A): 80%
inhibition at 40.0143 g/ha (Cocklebur [2]; 0.0357 lb/A): 98%
inhibition at 200.072 g/ha (Cocklebur [2]; 0.1785 lb/A): 80%
inhibition at 1000.92 g/ha (Cocklebur [2]; 0.893 lb/A): 100%
inhibition at 7.95803 g/ha (Barnyardgrass [3]; 0.0071 lb/A): 30%
inhibition at 40.0143 g/ha (Barnyardgrass [3]; 0.0357 lb/A): 70%
inhibition at 200.072 g/ha (Barnyardgrass [3]; 0.1785 lb/A): 98%
inhibition at 1000.92 g/ha (Barnyardgrass [3]; 0.893 lb/A): 98%
inhibition at 7.95803 g/ha (Morning Glory [4]; 0.0071 lb/A): 95%
inhibition at 40.0143 g/ha (Morning Glory [4]; 0.0357 lb/A): 80%
inhibition at 200.072 g/ha (Morning Glory [4]; 0.1785 lb/A): 100%
inhibition at 1000.92 g/ha (Morning Glory [4]; 0.893 lb/A): 95%
inhibition at 7.95803 g/ha (Yellow Nutsedge [5]; 0.0071 lb/A): 0%
inhibition at 40.0143 g/ha (Yellow Nutsedge [5]; 0.0357 lb/A): 40%
inhibition at 200.072 g/ha (Yellow Nutsedge [5]; 0.1785 lb/A): 10%
inhibition at 1000.92 g/ha (Yellow Nutsedge [5]; 0.893 lb/A): 30%
inhibition at 7.95803 g/ha (Common Chickweed; 0.0071 lb/A): 0%
inhibition at 40.0143 g/ha (Common Chickweed; 0.0357 lb/A): 100%
inhibition at 200.072 g/ha (Common Chickweed; 0.1785 lb/A): 100%
inhibition at 1000.92 g/ha (Common Chickweed; 0.893 lb/A): 100%
inhibition at 7.95803 g/ha (Velvetleaf; 0.0071 lb/A): 100%
inhibition at 40.0143 g/ha (Velvetleaf; 0.0357 lb/A): 100%
inhibition at 200.072 g/ha (Velvetleaf; 0.1785 lb/A): 100%
inhibition at 1000.92 g/ha (Velvetleaf; 0.893 lb/A): 100%
inhibition at 7.95803 g/ha (Soybean; 0.0071 lb/A): 0%
inhibition at 40.0143 g/ha (Soybean; 0.0357 lb/A): 100%
inhibition at 200.072 g/ha (Soybean; 0.1785 lb/A): 95%
inhibition at 280.212 g/ha (Soybean; 0.25 lb/A): 95%
inhibition at 1000.92 g/ha (Soybean; 0.893 lb/A): 100%
inhibition at 7.95803 g/ha (Yellow Foxtail [6]; 0.0071 lb/A): 95%
inhibition at 40.0143 g/ha (Yellow Foxtail [6]; 0.0357 lb/A): 100%
inhibition at 200.072 g/ha (Yellow Foxtail [6]; 0.1785 lb/A): 100%
inhibition at 280.212 g/ha (Yellow Foxtail [6]; 0.25 lb/A): 100%
inhibition at 1000.92 g/ha (Yellow Foxtail [6]; 0.893 lb/A): 100%
inhibition at 7.95803 g/ha (Rice; 0.0071 lb/A): 65%
inhibition at 40.0143 g/ha (Rice; 0.0357 lb/A): 70%
inhibition at 200.072 g/ha (Rice; 0.1785 lb/A): 85%
inhibition at 1000.92 g/ha (Rice; 0.893 lb/A): 100%
inhibition at 7.95803 g/ha (Cocklebur [7]; 0.0071 lb/A): 50%
inhibition at 40.0143 g/ha (Cocklebur [7]; 0.0357 lb/A): 80%
inhibition at 200.072 g/ha (Cocklebur [7]; 0.1785 lb/A): 95%
inhibition at 1000.92 g/ha (Cocklebur [7]; 0.893 lb/A): 100%
inhibition at 7.95803 g/ha (Barnyardgrass [8]; 0.0071 lb/A): 80%
inhibition at 40.0143 g/ha (Barnyardgrass [8]; 0.0357 lb/A): 100%
inhibition at 200.072 g/ha (Barnyardgrass [8]; 0.1785 lb/A): 100%
inhibition at 280.212 g/ha (Barnyardgrass [8]; 0.25 lb/A): 100%
inhibition at 1000.92 g/ha (Barnyardgrass [8]; 0.893 lb/A): 100%
inhibition at 7.95803 g/ha (Morning Glory [9]; 0.0071 lb/A): 70%
inhibition at 40.0143 g/ha (Morning Glory [9]; 0.0357 lb/A): 85%
inhibition at 200.072 g/ha (Morning Glory [9]; 0.1785 lb/A): 100%
inhibition at 1000.92 g/ha (Morning Glory [9]; 0.893 lb/A): 100%
inhibition at 7.95803 g/ha (Yellow Nutsedge [10]; 0.0071 lb/A): 70%
inhibition at 40.0143 g/ha (Yellow Nutsedge [10]; 0.0357 lb/A): 25%
inhibition at 200.072 g/ha (Yellow Nutsedge [10]; 0.1785 lb/A): 55%
inhibition at 1000.92 g/ha (Yellow Nutsedge [10]; 0.893 lb/A): 65%
inhibition at 7.95803 g/ha (Corn; 0.0071 lb/A): 10%
inhibition at 40.0143 g/ha (Corn; 0.0357 lb/A): 80%
inhibition at 200.072 g/ha (Corn; 0.1785 lb/A): 95%
inhibition at 280.212 g/ha (Corn; 0.25 lb/A): 100%
inhibition at 1000.92 g/ha (Corn; 0.893 lb/A): 100%
